The test system of one experiment is ER. Kind of experiment: Yeast two-hybrid spot test, control clone ER + 3D-sensor No 30-2. The format is cell-based. From the text: (a) Isolation of peptides interacting with the NS5BΔ21 in the yeast two-hybrid-system. Yeast cells carrying the bait (NS5BΔ21-LexA) were transformed with the prey represented by a library of random peptides (in frame with the viral VP16 activation domain). Colonies growing on selective medium and staining blue allowed the isolation of individual peptides that would specifically interact with the polymerase. (b) Isolation of conformation sensitive peptides. The interacting peptides were then tested in presence of ligands known to induce conformational changes in the bait NS5B. The “3D-sensors” were thus identified as the ones whose binding to the target polymerase was prevented by known anti-NS5B. The corresponding colonies didn't show any expression of the selection or reporter gene. (c) Characterization of NS5BΔ21 “3D-sensors” in a spot test. Here were represented 2 selected yeast colonies: one carrying the ER and its specific peptide called No 30-2 isolated previously and used as a control, the other carrying the NS5BΔ21 and its specific peptide called N21C272. Both clones were spotted on selective medium lacking histidine, leucine and tryptophane, supplemented or not with polymerase ligands and overlayed with an X-Gal staining The NS5BΔ21+N21C272 clone grew on selective medium in the absence of any NS5B ligand and stained positive for LacZ. […]

For the next experiment, the target named is T1, NS5BΔ21 (Hepatitis C virus genotype 1b, UniProt P26662).
T1 construct: lexA/truncated HCV polymerase lacking the C-terminal 21 amino-acids fusion protein as a bait; expressed in transfected cells; host or cells: Saccharomyces cerevisiae L40, plasmid pVVS468
It is filed as cell-based, HCV genotype 1b. As to conditions: selective medium lacking histidine, leucine and tryptophane, supplemented with ligand, X-Gal overlay.

Another experiment has as its target T2, native NS5BΔ21 (Hepatitis C virus genotype 1b, UniProt P26662).
T2 construct: expressed in transfected cells; host or cells: Hela cells, plasmid pVVS478
The experiment can be described thus: 3D-Screen-NS5B platform, luciferase reporter, Hela cells, native NS5BΔ21. The format is cell-based, HCV genotype 1b. As to conditions: HeLa, 24 hours; for inhibition at 10 µM: 10 uM final concentration, 3D-sensor N21C272, versus DMSO. On the procedure: Transfections were performed for 2 hours in 100 mm dishes in 2 to 4 million cells with 5 to 20 ug of total DNA complexed to jetPEI (PolyPLus transfection, Illkirch, France) with a N/P ratio of 8 The optimal ratio between the plasmids encoding for the luciferase reporter, the target and the selected 3Dsensor was: 3 ug/1 ug/0.5 ug. Cells were dissociated and 25000 cells per well were seeded in 96 well culture treated plates (BD Biosciences, Erembodegem, Belgium).
Compound library's plates were thawed at room temperature. Drugs were handled by a Genesis workstation (Tecan, Lyon, France) and added to the cells at a 5 uM (in 0.5% DMSO) final concentration. Screening was performed by runs of twenty plates. Hits were identified by measurement of the luciferase activity.
Cell culture supernatant was discarded and 100 ul of Lysis buffer were added to each well. Following […] of vigorous shaking, the lysate was transferred to white opaque 96 well-plates and 100 ul of Luciferin buffer were added. Chemi-luminescence measurement was performed immediately using a Microlumat LB96 luminometer (Berthold, Thoiry, France) with 1 or 10 sec integration time.
Selected hits were synthesized and tested at concentrations varying between 0.01 uM and 100 uM final concentration so as to determine their IC50 on 3 independent experiments.
3D-sensors confirmed in yeast were further investigated in human cells. Among the reasons of choosing Hela cells figured their wide use, easiness of manipulation and capacity of replicating subgenomic HCV replicons (Zhu et al., 2003; Kato et al., 2005).
To validate whether drug's action on our system was stokiometric or not, Hela cells were transiently transfected with three expression plasmids encoding the reporter gene luciferase, the target protein and the conformation sensitive peptide N21C272. After incubation with increasing amounts of reference drugs cVVS-023476 or cVVS-023477, luciferase expression was measured.

In experiment [1] the target is T3, native NS4A-NS3 full length protein (Hepatitis C virus genotype 1b, UniProt P26662). Kind of experiment: 3D-Screen NS4A-NS3 full length platform, luciferase reporter, Hela cells, native. The format is cell-based, HCV genotype 1b. The arrangement: the GSGS linker and the NS3 protease (residues 3-631); expressed in transfected cells. As to conditions: HeLa; 2 uM final concentration, 3D-sensor H5-34.
Method: (§3) Cell culture supernatant was discarded and 100 ul of Lysis buffer were added to each well. Following 10 nm of vigorous shaking, the lysate was transferred to white opaque 96 well-plates and 100 ul of Luciferin buffer were added. Chemi-luminescence measurement was performed immediately using a Microlumat LB96 luminometer (Berthold, Thoiry, France) with 1 or 10 sec integration time.

Another experiment addresses T4, native NS4A-NS3 protease (Hepatitis C virus genotype 1b, UniProt P26662, I1158V/V1140I).
T4 construct: the NS3 protease (residues 3-181); expressed in transfected cells; host or cells: Hela cells
Kind of experiment: 3D-Screen NS4A-NS3 protease platform, luciferase reporter, Hela cells, native. It is filed as cell-based, HCV genotype 1b. To be noted: HeLa; 2 uM final concentration, 3D-sensor V7-62.

Another experiment relates to protease. To be noted: described in Lamarre et al, 2003; cited from earlier work.
Experiment [2] concerns the target T5, NS4A-NS3 full length protein A156V (Hepatitis C virus genotype 1b, UniProt P26662, A1182V).
T5 construct: the GSGS linker and the NS3 protease (residues 3-631); expressed in transfected cells; host or cells: Huh7 hepatoma cells
The experiment can be described thus: 3D-Screen NS4A-NS3 full length mutant profiling platform, Huh7 cells, A156V. It is filed as cell-based, HCV genotype 1b. As for the experimental part:
(§1) Hela cells (ATCC, Molsheim, France) were maintained in EMEM (Minimum Essential Medium Eagle with Earle's Balanced Salt solution without L-Glutamine; Biowhittaker/Cambrex, East Rutherford, N.J., USA) supplemented with 10% FBS (JRH), 2 mM Glutamine (Biowhittaker/Cambrex), 1% Non-essential Amino acids (Biowhittaker/Cambrex), 100 units/ml Penicillin and 100 ug/ml Streptomycin. Cells were kept in a humidified 5% CO2 atmosphere at 37° C. and dissociated using Trypsine-EDTA (1×) when reaching 80-90% confluence. Huh-7 hepatoma derived cells (Nakabayashi H et al, 1982) were maintained in half volume of DMEM (Dulbecco's […] Medium without L-Glutamine; Lonza, Basel, Switzerland) and half volume of Ham's F12 medium (Lonza, Basel, Switzerland) supplemented with 10% FBS (SAFC, USA), 1 mM Glutamine (Lonza, Basel, Switzerland), 0.5 mM Sodium pyruvate (Lonza, Basel, Switzerland), 100 units/ml Penicillin and 100 ug/ml Streptomycin. Cells were kept in a humidified 5% CO2 atmosphere at 37° C. and dissociated using Trypsine-EDTA (1×) when reaching 80-90% confluence. […]
(§2) Cell culture supernatant was discarded and 100 ul of Lysis buffer were added to each well. […] Chemi-luminescence measurement was performed immediately using a Microlumat LB96 luminometer (Berthold, Thoiry, France) with 1 or 10 sec integration time.

Experiment [3] addresses T6, NS4A-NS3 full length protein D168V (Hepatitis C virus genotype 1b, UniProt P26662, D1194V).
T6 construct: the GSGS linker and the NS3 protease (residues 3-631); expressed in transfected cells; host or cells: Huh7 hepatoma cells
Kind of experiment: 3D-Screen NS4A-NS3 full length mutant profiling platform, Huh7 cells, D168V. The format is cell-based, HCV genotype 1b. On the procedure: as §1, §2

The target of experiment [4] is T3, native NS4A-NS3 full length protein. The experiment can be described thus: 3D-Screen NS4A-NS3 full length mutant profiling platform, Huh7 cells, 3D-sensor VF-9A11, native. It is filed as cell-based, HCV genotype 1b. Further details: the GSGS linker and the NS3 protease (residues 3-631); expressed in transfected cells; host or cells: Huh7 hepatoma cells. On the procedure: as §1, §2

For experiment [5], the target named is NS5BΔ21 L30R mutant fused to Gal4 DBD (pVVS475) (yeast; hepatitis C virus genotype 1b), P26662. The experiment can be described thus: cell-based or functional assay.
Experiment [6] concerns the target NS5BΔ21 L30S mutant fused to Gal4 DBD (pVVS474) (yeast; hepatitis C virus genotype 1b), P26662. Kind of experiment: cell-based or functional assay.
In experiment [7] the target is single chain NS4A-NS3 full length D168V mutant fused to Gal4 DBD (yeast; hepatitis C virus genotype 1b), P26662. Kind of experiment: cell-based or functional assay.
Experiment [8] deals with single chain NS4A-NS3 full length A156V mutant fused to Gal4 DBD (pVVS783) (yeast; hepatitis C virus genotype 1b), P26662. The experiment can be described thus: cell-based or functional assay.
Experiment [9] has as its target single chain NS4A-NS3 full length A156T mutant fused to Gal4 DBD (yeast; hepatitis C virus genotype 1b), P26662. Kind of experiment: cell-based or functional assay.
Experiment [10] deals with single chain NS4A-NS3 full length R109K mutant fused to Gal4 DBD (yeast; hepatitis C virus genotype 1b), P26662. The experiment can be described thus: cell-based or functional assay.
Experiment [11] has as its target single chain NS4A-NS3 full length protein (native) fused to the yeast Gal4 DBD (pVVS772) (yeast; hepatitis C virus genotype 1b), P26662. Kind of experiment: cell-based or functional assay.
Experiment [12] deals with single chain NS4A-NS3 full length T54A mutant fused to Gal4 DBD (yeast; hepatitis C virus genotype 1b), P26662. Kind of experiment: cell-based or functional assay.
Experiment [13] deals with single chain NS4A-NS3 full length A156S mutant fused to Gal4 DBD (yeast; hepatitis C virus genotype 1b), P26662. Kind of experiment: cell-based or functional assay.
The mark [14] stands for this setting: Huh7, VF-9A11, listed as cVVS-23591.

The text below walks through data of patent publication US20110251085A1, “IN VITRO METHOD TO DETERMINE WHETHER A DRUG CANDIDATE ACTIVE AGAINST A TARGET PROTEIN IS ACTIVE AGAINST A VARIANT OF SAID PROTEIN” (VIVALIS, priority 2008, published 2011).

Entries after “also recorded” stand apart in the source; their conditions may differ. Where two headings read alike, the source gives them in different places. Bounds are passed on as bounds.

Method for native NS4A-NS3 protease: as §3
3D-sensors confirmed in yeast were further investigated in Hela cells.

Turning to `C[C@]12CC[C@@H]3c4ccc(O)cc4CC[C@H]3[C@@H]1CC[C@@H]2O` [Estradiol], the “sensitivity of the control clone (ER + 3D sensor No 30.2 interaction) to ligand” value in the experiment on ER is reported as “active”.

For the molecule `O=C(O)P(=O)(O)O` [Foscarnet], the “growth on selective medium and LacZ staining of the NS5BΔ21+N21C272 yeast clone” value on NS5BΔ21 is “had no effect; also recorded: didn't show any effect”. Further, the inhibition at 10 µM against native NS5BΔ21 stood at 11.7%.

As for `O=C(O)CP(=O)(O)O` [Phosphonoacetic acid], the “growth on selective medium and LacZ staining of the NS5BΔ21+N21C272 yeast clone” value on NS5BΔ21 is “had no effect”; on NS5BΔ21 (listed as PAA) it was “didn't show any effect”. The inhibition at 10 µM against native NS5BΔ21 is -2.2%.

With `NC(=O)c1ncn([C@@H]2O[C@H](CO)[C@@H](O)[C@H]2O)n1` [Ribavirin], the inhibition at 75 µM at native NS5BΔ21 (75 uM final concentration, 3D-sensor N21C272) worked out at 8.7%.

On to `CCC[C@H](NC(=O)[C@@H]1[C@H]2CCC[C@H]2CN1C(=O)[C@@H](NC(=O)[C@@H](NC(=O)c1cnccn1)C1CCCCC1)C(C)(C)C)C(=O)C(=O)NC1CC1` [cVVS-023518, 2-(2-{2-Cyclohexyl-2-[(pyrazine-2-carbonyl)-amino]-acetylamino}-3,3-dimethyl-butyryl)-octahydro-cyclopenta[c]pyrrole-1-carboxylic acid (1-cyclopropylaminooxalyl-butyl)-amide], for which the inhibition at 2 µM came out at 60% in experiment [1] and 90% at native NS4A-NS3 protease.

As for `COc1ccc2c(O[C@@H]3C[C@H]4C(=O)N[C@]5(C(=O)O)C[C@H]5/C=C\CCCCC[C@H](NC(=O)OC5CCCC5)C(=O)N4C3)cc(-c3csc(NC(C)C)n3)nc2c1` [cVVS-023951, (1S,4R,6S,7Z,14S,18R)-14-cyclopentyloxycarbonylamino-18-[2-(2-isopropylamino-thiazol-4-yl)-7-methoxyquinolin-4-yloxy]-2,15-dioxo-3,16-diazatricyclo[14.3.0.04.6]nonadec-7-ene-4-carboxylic acid], in the experiment with protease, the “activity on the protease” value was “low nanomolar range”. The “resistance profile: sensitivity of the platform to the compound's inhibition” value is “high resistance” in experiment [2] (Huh7, VF-9A11); “resistance in the same range as what was previously reported” in experiment [2] (setting [14]); “high resistance” in experiment [3] (Huh7, VF-9A11); “resistance in the same range as what was previously reported” in experiment [3] (setting [14]); “active” in [4] (native, Huh7, VF-9A11).

“VFII-N4: NS3 full length 3D-sensor peptide VNAWAWGW (SEQ ID No 65) (NS3 full length peptide sensor VFII-N4)”: the “sensitivity of the 3D-sensor to Telaprevir and Ciluprevir” value in experiment [4] is “as sensitive as the 3D-Sensor VF-9A11”.

In the case of DGCARCVASVQLYGD (modifications not checked) [3D-sensor N21C272 fused to the VP16 activation domain], the luciferase signal in experiment [5] worked out at 3100 RLU; in experiment [6], 7640 RLU.

For the molecule GTQKEAVIYPCYVPW (modifications not checked) [3D-sensor VF-9A11 fused to the VP16 activation domain], the luciferase signal over background in [7], in experiment [8], in experiment [9], in [10], in experiment [11] and in experiment [12] was more than 3 throughout. Moreover, the luciferase signal over background in experiment [13] was more than 3.
